{"source": "patent US20240208986A1", "about": "“PHENYL AZEPINES AS RIPK1 INHIBITORS AND METHODS OF USE THEREOF” (Merck Sharp & Dohme LLC, priority 2021, published 2024)", "note": "pIC50: −log10 of the molar value.", "data": [{"target": "RIPK1 (recombinant GST-RIPK1 kinase domain, residues 1-327) (Homo sapiens (Human), UniProt Q13546)", "sequence (Q13546 1-327)": "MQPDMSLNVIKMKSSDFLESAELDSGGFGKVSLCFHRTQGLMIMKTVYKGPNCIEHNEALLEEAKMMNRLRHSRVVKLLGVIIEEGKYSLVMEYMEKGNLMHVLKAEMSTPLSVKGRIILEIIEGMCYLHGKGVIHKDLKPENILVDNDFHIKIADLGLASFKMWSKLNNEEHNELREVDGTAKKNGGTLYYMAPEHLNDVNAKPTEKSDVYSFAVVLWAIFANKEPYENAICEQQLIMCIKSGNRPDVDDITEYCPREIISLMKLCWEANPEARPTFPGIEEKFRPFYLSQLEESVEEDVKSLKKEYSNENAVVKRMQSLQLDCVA", "assay": "RIPK1-ADP-Glo Enzymatic Assay", "type": "biochemical", "settings": "25 nM GST-RIPK1, 300 μM ATP, 3 μM dephosphorylated-MBP; 30 minutes pre-incubation, 150 minutes reaction; ten-point titration", "method": "The enzymatic activity of RIPK1 is measured using an assay derived from ADP-Glo kit (™Promega), which provides a luminescent-based ADP detection system. Specifically, the ADP generated by RIPK1 kinase is proportionally detected as luminescent signals in a homogenous fashion. In this context, the assessment of the inhibitory effect of small molecules (EC50) is measured by the effectiveness of the compounds to inhibit the ATP to ADP conversion by RIPK1.\nIn this assay, the potency (EC50) of each compound was determined from a ten-point (1:3 serial dilution; top compound concentration of 100000 nM) titration curve using the following outlined procedure. To each well of a white ProxiPlus 384 well-plate, 30 nL of compound (1% DMSO in final assay volume of 3 μL) was dispensed, followed by the addition of 2 μL of 1× assay buffer (25 mM Hepes 7.3, 20 mM MgCl2, 50 mM NaCl, 1 mM DTT, 0.005% Tween20, and 0.02% BSA) containing 37.5 nM of GST-RIPK1 (recombinant GST-RIPK1 kinase domain (residues 1-327) enzyme produced from baculovirus-transfected Sf21 cells: MW=62 kDa). Plates were placed in an ambient temperature humidified chamber for a 30 minutes pre-incubation with compound. Subsequently, each reaction was initiated by the addition of 1 μL 1× assay buffer containing 900 μM ATP and 3 μM dephosphorylated-MBP substrate. The final reaction in each well of 3 μL consists of 25 nM of GST-RIPK1, 300 μM ATP, and 3 μM dephosphorylated-MBP. Kinase reactions were allowed to proceed for 150 minutes prior to adding ADP-Glo reagents per Promega's outlined kit protocol. Dose-response curves were generated by plotting percent effect (% product conversion; Y-axis) vs. Log10 compound concentrations (X-axis). EC50 values were calculated using a non-linear regression, four-parameters sigmoidal dose-response model.", "values": [{"compound": "CC1(C(=O)N2C[C@@H]3C[C@H]2c2ccccc2O3)CCCCC1", "note": "[Compound 1-5, ((2S,5S)-2,3-dihydro-2,5-methanobenzo[f][1,4]oxaze-pin-4(5H)-yl)(1-methylcyclohexyl)methanone]", "pIC50": 7.38}, {"compound": "CC1(C(=O)N2C[C@@H]3C[C@H]2c2ccccc2O3)CCCC1", "note": "[Compound 1-6, ((2S,5S)-2,3-dihydro-2,5-methanobenzo[f][1,4]oxaze-pin-4(5H)-yl)(1-methylcyclopentyl) methanone]", "pIC50": 7.37}, {"compound": "CC(C)(COC(F)(F)F)C(=O)N1C[C@@H]2C[C@H]1c1ccccc1O2", "note": "[Compound 1-7, 1-((2S,5S)-2,3-dihydro-2,5-methanobenzo[f][1,4]oxaze-pin-4(5H)-yl)-2,2-dimethyl-3-(trifluoromethoxy)propan-1-one]", "pIC50": 6.66}, {"compound": "O=C(C1CCCCC1)N1C[C@@H]2C[C@H]1c1ccccc1O2", "note": "[Compound 1-8, cyclohexyl((2S,5S)-2,3-dihydro-2,5-methanobenzo[f][1,4]oxaze-pin-4(5H)-yl)methanone]", "pIC50": 6.19}, {"compound": "O=C(N1C[C@@H]2C[C@H]1c1ccccc1O2)C1(F)CCCCC1", "note": "[Compound 1-9, ((2S,5S)-2,3-dihydro-2,5-methanobenzo[f][1,4]oxaze-pin-4(5H)-yl)(1-fluorocyclohexyl)methanone]", "pIC50": 6.42}, {"compound": "O=C(N1C[C@@H]2C[C@H]1c1ccccc1O2)C12CCCC(C1)C2", "note": "[Compound 1-10, bicyclo[3.1.1]heptan-1-yl((2S,5S)-2,3-dihydro-2,5-methanobenzo[f][1,4]oxaze-pin-4(5H)-yl)methanone]", "pIC50": 6.86}, {"compound": "CC(C)(C(=O)N1C[C@@H]2C[C@H]1c1ccccc1O2)C1CCC1", "note": "[Compound 1-11, 2-cyclobutyl-1-[(2S,5S)-2,3-dihydro-2,5-methano-1,4-benzoxazepin-4(5H)-yl]-2-methylpropan-1-one]", "pIC50": 6.61}, {"compound": "CC(F)(F)C1(C(=O)N2C[C@@H]3C[C@H]2c2ccccc2O3)CCC1", "note": "[Compound 1-12, [1-(1,1-difluoroethyl)cyclobutyl] [(2S,5S)-2,3-dihydro-2,5-methano-1,4-benzoxazepin-4(5H)-yl]methanone]", "pIC50": 7.07}, {"compound": "O=C(N1C[C@@H]2C[C@H]1c1ccccc1O2)C1(C(F)F)CCCC1", "note": "[Compound 1-13, [1-(difluoromethyl)cyclopentyl] [(2S,5S)-2,3-dihydro-2,5-methano-1,4-benzoxazepin-4(5H)-yl]methanone]", "pIC50": 6.98}, {"compound": "CC1(C)C(C(=O)N2C[C@@H]3C[C@H]2c2ccccc2O3)C1(C)C", "note": "[Compound 1-15, [(2S,5S)-2,3-dihydro-2,5-methano-1,4-benzoxazepin-4(5H)-yl](2,2,3,3-tetramethylcyclopropyl) methanone]", "pIC50": 6.01}, {"compound": "O=C(N1C[C@@H]2C[C@H]1c1ccccc1O2)C1(C(F)(F)F)CCC1", "note": "[Compound 1-16, [(2S,5S)-2,3-dihydro-2,5-methano-1,4-benzoxazepin-4(5H)-yl][1-(trifluoromethyl)cyclobutyl] methanone]", "pIC50": 7.02}, {"compound": "CC(F)(F)C(C)(C)C(=O)N1C[C@@H]2C[C@H]1c1ccccc1O2", "note": "[Compound 1-17, 1-[(2S,5S)-2,3-dihydro-2,5-methano-1,4-benzoxazepin-4(5H)-yl]-3,3-difluoro-2,2-dimethylbutan-1-one]", "pIC50": 7.33}, {"compound": "CC(C)(C(=O)N1C[C@@H]2C[C@H]1c1ccccc1O2)C(F)(F)F", "note": "[Compound 1-18, 1-[(2S,5S)-2,3-dihydro-2,5-methano-1,4-benzoxazepin-4(5H)-yl]-3,3,3-trifluoro-2,2-dimethylpropan-1-one]", "pIC50": 7.14}, {"compound": "O=C(N1C[C@@H]2C[C@H]1c1ccccc1O2)C1(F)CCCC1", "note": "[Compound 1-19, [(2S,5S)-2,3-dihydro-2,5-methano-1,4-benzoxazepin-4(5H)-yl](1-fluorocyclopentyl)methanone]", "pIC50": 6.30}, {"compound": "CC(C)(C)CC(=O)N1C[C@@H]2C[C@H]1c1ccccc1O2", "note": "[Compound 1-21, 1-[(2S,5S)-2,3-dihydro-2,5-methano-1,4-benzoxazepin-4(5H)-yl]-3,3-dimethylbutan-1-one]", "pIC50": 6.05}, {"compound": "CCC(C)(C)C(=O)N1C[C@@H]2C[C@H]1c1ccccc1O2", "note": "[Compound 1-22, 1-[(2S,5S)-2,3-dihydro-2,5-methano-1,4-benzoxazepin-4(5H)-yl]-2,2-dimethylbutan-1-one]", "pIC50": 7.68}, {"compound": "O=C(N1C[C@@H]2C[C@H]1c1ccccc1O2)C12CC3CC(CC(C3)C1)C2", "note": "[Compound 1-23, [(2S,5S)-2,3-dihydro-2,5-methano-1,4-benzoxazepin-4(5H)-yl][(3R,5R,7R)-tricyclo[3.3.1.1~3,7~]decan-1-yl]methanone]", "pIC50": 6.63}, {"compound": "CC(C(=O)N1C[C@@H]2C[C@H]1c1ccccc1O2)(C(F)(F)F)C(F)(F)F", "note": "[Compound 1-24, 1-[(2S,5S)-2,3-dihydro-2,5-methano-1,4-benzoxazepin-4(5H)-yl]-3,3,3-trifluoro-2-methyl-2-(trifluoromethyl)propan-1-one]", "pIC50": 7.16}, {"compound": "CN(C)C1(C(=O)N2C[C@@H]3C[C@H]2c2ccccc2O3)CCC1", "note": "[Compound 1-25, [(2S,5S)-2,3-dihydro-2,5-methano-1,4-benzoxazepin-4(5H)-yl][1-(dimethylamino)cyclobutyl] methanone]", "pIC50": 6.85}, {"compound": "O=C(N1C[C@@H]2C[C@H]1c1ccccc1O2)C1(C(F)(F)F)CCCC1", "note": "[Compound 1-26, [(2S,5S)-2,3-dihydro-2,5-methano-1,4-benzoxazepin-4(5H)-yl][1-(trifluoromethyl)cyclopentyl]methanone]", "pIC50": 7.22}, {"compound": "CC(C)(C(=O)N1C[C@@H]2C[C@H]1c1ccccc1O2)C1CC1", "note": "[Compound 1-28, 2-cyclopropyl-1-[(2S,5S)-2,3-dihydro-2,5-methano-1,4-benzoxazepin-4(5H)-yl]-2-methylpropan-1-one]", "pIC50": 7.66}, {"compound": "O=C(N1C[C@@H]2C[C@H]1c1ccccc1O2)C1(C(F)F)CCC1", "note": "[Compound 1-29, [1-(difluoromethyl)cyclobutyl] [(2S,5S)-2,3-dihydro-2,5-methano-1,4-benzoxazepin-4(5H)-yl]methanone]", "pIC50": 7.24}, {"compound": "N#CC1(C(=O)N2C[C@@H]3C[C@H]2c2ccccc2O3)CCC1", "note": "[Compound 1-30, 1-[(2S,5S)-2,3-dihydro-2,5-methano-1,4-benzoxazepine-4(5H)-carbonyl]cyclobutane-1-carbonitrile]", "pIC50": 7.12}, {"compound": "CC1(C(=O)N2C[C@@H]3C[C@H]2c2ccccc2O3)CC(F)(F)C1", "note": "[Compound 1-31, (3,3-difluoro-1-methylcyclobutyl)[(2S,5S)-2,3-dihydro-2,5-methano-1,4-benzoxazepin-4(5H)-yl]methanone]", "pIC50": 6.80}, {"compound": "CC(CF)(CF)C(=O)N1C[C@@H]2C[C@H]1c1ccccc1O2", "note": "[Compound 1-33, 1-[(2S,5S)-2,3-dihydro-2,5-methano-1,4-benzoxazepin-4(5H)-yl]-3-fluoro-2-(fluoromethyl)-2-methylpropan-1-one]", "pIC50": 6.06}, {"compound": "N#Cc1cc(N2CCC(C(=O)N3C[C@@H]4C[C@H]3c3ccccc3O4)CC2)ncn1", "note": "[Compound 1-36, 6-{4-[(2S,5S)-2,3-dihydro-2,5-methano-1,4-benzoxazepine-4(5H)-carbonyl]piperidin-1-yl}pyrimidine-4-carbonitrile]", "pIC50": 6.49}, {"compound": "O=C(C1CCN(c2ncnc3scnc23)CC1)N1C[C@@H]2C[C@H]1c1ccccc1O2", "note": "[Compound 1-37, [(2S,5S)-2,3-dihydro-2,5-methano-1,4-benzoxazepin-4(5H)-yl][1-([1,3]thiazolo[5,4-d]pyrimidin-7-yl)piperidin-4-yl]methanone]", "pIC50": 6.91}]}]}
